Source: ChEMBL document CHEMBL2086238, “Identification of ETP-46321, a potent and orally bioavailable PI3K α, δ inhibitor” (Bioorg Med Chem Lett, 2012)
Blank lines part the entries; values can stand above or below the compound they belong to.

Assays:
[1] = target: Phosphatidylinositol 4,5-bisphosphate 3-kinase catalytic subunit alpha isoform (Homo sapiens, UniProt P42336); assay: Inhibition of PI3Kalpha in human U2OS cells assessed as inhibition of AKT Ser 473 phosphorylation by Western blot; type: cell-based
[2] = target: PI3-kinase p110-alpha/p85-alpha (Homo sapiens, UniProt P42336); assay: Inhibition of human PI3Kalpha (p110alpha/p85alpha) by ADP accumulation based HTRF assay; type: protein-complex assay; settings: for Ki: read-out: Ki(app)
[3] = target: Phosphatidylinositol 4,5-bisphosphate 3-kinase catalytic subunit gamma isoform (Homo sapiens, UniProt P48736); assay: Inhibition of human PI3Kgamma by ADP accumulation based HTRF assay; settings: read-out: Ki(app)
PI3K p110 beta/p85 alpha = PI3K p110 beta/p85 alpha (Homo sapiens, UniProt P42338); assay: Inhibition of human PI3Kbeta (p110beta/p85alpha) by ADP accumulation based HTRF assay; type: protein-complex assay; settings: read-out: Ki(app)
[4] = target: PI3-kinase p110-delta/p85-alpha (Homo sapiens, UniProt O00329); assay: Inhibition of human PI3Kdelta (p110delta/p85alpha) by ADP accumulation based HTRF assay; type: protein-complex assay; settings: read-out: Ki(app)
[5] = Stability in mouse liver microsomes at 1 uM incubated for 15 mins; type: ADME, Microsome; settings: read-out: Stability
CYP2C9 = CYP2C9 (Homo sapiens, UniProt P11712); assay: Inhibition of CYP2C9 at 10 uM; type: ADME
CYP2D6 = CYP2D6 (Homo sapiens, UniProt P10635); assay: Inhibition of CYP2D6 at 10 uM; type: ADME
CYP3A4 = CYP3A4 (Homo sapiens, UniProt P08684); assay: Inhibition of CYP3A4 at 10 uM; type: ADME
[6] = Stability in human liver microsomes at 1 uM incubated for 15 mins; type: ADME, Microsome; settings: read-out: Stability
CYP2C19 = CYP2C19 (Homo sapiens, UniProt P33261); assay: Inhibition of CYP2C19 at 10 uM; type: ADME
CYP1A2 = target: T1, CYP1A2 (Homo sapiens, UniProt P05177); assay: Inhibition of CYP1A2 at 10 uM; type: ADME
T1 sequence (P05177 whole entry): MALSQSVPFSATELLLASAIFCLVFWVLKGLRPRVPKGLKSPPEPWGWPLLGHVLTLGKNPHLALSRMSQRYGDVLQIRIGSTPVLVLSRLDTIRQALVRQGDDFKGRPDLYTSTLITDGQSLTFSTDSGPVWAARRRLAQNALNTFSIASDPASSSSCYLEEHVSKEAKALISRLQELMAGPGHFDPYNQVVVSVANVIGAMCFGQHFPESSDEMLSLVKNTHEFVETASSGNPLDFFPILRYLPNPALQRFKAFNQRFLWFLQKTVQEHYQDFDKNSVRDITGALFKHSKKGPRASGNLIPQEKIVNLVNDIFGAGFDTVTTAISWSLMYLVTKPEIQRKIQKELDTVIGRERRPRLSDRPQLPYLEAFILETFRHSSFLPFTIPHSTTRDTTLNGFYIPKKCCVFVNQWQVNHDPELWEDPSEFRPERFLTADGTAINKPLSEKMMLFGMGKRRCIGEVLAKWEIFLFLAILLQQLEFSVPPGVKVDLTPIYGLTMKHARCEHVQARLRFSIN

Phosphatidylinositol 4,5-bisphosphate 3-kinase catalytic subunit alpha isoform, sequence (P42336 whole entry, canonical isoform): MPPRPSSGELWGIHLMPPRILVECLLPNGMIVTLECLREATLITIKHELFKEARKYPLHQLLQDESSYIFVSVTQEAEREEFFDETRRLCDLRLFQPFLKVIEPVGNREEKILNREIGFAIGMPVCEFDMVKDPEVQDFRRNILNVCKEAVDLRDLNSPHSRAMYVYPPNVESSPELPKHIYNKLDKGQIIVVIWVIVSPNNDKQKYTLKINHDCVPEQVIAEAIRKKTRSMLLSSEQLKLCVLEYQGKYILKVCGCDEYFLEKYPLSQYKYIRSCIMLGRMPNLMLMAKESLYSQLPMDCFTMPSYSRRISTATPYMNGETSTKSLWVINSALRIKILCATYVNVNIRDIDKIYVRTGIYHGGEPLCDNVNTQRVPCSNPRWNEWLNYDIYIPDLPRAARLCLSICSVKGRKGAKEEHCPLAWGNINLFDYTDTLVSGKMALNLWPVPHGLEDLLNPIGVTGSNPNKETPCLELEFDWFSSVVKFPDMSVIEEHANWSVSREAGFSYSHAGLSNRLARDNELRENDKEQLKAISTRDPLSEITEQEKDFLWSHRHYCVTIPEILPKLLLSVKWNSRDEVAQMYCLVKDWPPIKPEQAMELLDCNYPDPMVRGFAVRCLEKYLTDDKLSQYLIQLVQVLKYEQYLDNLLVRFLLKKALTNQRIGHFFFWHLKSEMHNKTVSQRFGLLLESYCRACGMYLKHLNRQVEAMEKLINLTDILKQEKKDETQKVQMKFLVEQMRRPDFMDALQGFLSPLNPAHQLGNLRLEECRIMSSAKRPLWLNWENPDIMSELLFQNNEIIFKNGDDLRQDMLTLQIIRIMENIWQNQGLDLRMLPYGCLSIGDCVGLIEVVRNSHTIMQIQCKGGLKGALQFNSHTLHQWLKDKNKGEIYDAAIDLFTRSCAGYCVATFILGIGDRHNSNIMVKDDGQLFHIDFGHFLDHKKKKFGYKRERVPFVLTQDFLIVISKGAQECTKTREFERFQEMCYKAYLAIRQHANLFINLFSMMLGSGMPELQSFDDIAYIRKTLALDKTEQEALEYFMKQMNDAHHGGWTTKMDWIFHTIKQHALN
PI3-kinase p110-alpha/p85-alpha, sequence (P27986 whole entry, canonical isoform): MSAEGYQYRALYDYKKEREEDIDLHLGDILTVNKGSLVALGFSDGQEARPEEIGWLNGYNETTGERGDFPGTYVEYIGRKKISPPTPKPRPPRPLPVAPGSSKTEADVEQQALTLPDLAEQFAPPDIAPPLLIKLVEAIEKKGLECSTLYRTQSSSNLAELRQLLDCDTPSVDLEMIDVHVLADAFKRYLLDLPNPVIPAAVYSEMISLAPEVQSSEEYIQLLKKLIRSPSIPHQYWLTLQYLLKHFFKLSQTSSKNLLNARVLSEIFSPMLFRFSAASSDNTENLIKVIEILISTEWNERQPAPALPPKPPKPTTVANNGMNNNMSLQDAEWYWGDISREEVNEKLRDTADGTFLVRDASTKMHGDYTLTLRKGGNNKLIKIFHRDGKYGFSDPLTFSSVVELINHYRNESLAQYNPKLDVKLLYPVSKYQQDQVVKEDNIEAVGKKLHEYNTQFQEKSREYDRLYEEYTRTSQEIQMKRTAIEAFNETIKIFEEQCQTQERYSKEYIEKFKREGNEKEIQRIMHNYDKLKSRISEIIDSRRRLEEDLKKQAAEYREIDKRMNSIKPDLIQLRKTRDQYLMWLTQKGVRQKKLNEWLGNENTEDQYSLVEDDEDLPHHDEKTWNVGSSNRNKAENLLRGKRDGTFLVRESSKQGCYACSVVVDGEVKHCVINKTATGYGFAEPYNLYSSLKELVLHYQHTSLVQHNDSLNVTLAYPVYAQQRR
PI3-kinase p110-alpha/p85-alpha, sequence (P42336 whole entry, canonical isoform): as the sequence (P42336 whole entry, canonical isoform) above
CYP3A4, sequence (P08684 whole entry): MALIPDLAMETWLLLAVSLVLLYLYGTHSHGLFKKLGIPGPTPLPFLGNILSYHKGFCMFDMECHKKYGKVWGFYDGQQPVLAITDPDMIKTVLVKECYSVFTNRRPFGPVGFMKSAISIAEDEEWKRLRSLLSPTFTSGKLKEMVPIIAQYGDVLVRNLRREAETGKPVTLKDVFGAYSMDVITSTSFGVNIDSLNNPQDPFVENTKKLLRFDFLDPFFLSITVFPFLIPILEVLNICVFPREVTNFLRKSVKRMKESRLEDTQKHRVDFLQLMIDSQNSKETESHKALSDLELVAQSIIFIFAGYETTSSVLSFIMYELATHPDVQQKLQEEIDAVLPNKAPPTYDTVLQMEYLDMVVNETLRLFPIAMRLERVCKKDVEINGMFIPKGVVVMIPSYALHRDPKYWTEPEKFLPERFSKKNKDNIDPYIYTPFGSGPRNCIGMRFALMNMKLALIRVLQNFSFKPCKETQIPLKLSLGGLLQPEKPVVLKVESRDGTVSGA
CYP2D6, sequence (P10635 whole entry): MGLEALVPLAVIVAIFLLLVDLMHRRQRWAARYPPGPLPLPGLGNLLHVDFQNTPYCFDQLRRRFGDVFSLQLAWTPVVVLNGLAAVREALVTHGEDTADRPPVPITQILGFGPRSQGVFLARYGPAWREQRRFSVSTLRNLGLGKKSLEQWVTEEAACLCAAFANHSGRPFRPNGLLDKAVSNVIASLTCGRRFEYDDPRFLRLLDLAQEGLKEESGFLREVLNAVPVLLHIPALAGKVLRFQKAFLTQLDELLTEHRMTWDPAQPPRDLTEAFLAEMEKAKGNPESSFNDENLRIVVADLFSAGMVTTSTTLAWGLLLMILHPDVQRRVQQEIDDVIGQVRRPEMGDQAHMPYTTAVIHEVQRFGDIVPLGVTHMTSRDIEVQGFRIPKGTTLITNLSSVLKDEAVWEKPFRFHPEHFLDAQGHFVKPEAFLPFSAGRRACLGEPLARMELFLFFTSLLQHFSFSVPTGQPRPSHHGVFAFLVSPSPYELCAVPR
CYP2C19, sequence (P33261 whole entry): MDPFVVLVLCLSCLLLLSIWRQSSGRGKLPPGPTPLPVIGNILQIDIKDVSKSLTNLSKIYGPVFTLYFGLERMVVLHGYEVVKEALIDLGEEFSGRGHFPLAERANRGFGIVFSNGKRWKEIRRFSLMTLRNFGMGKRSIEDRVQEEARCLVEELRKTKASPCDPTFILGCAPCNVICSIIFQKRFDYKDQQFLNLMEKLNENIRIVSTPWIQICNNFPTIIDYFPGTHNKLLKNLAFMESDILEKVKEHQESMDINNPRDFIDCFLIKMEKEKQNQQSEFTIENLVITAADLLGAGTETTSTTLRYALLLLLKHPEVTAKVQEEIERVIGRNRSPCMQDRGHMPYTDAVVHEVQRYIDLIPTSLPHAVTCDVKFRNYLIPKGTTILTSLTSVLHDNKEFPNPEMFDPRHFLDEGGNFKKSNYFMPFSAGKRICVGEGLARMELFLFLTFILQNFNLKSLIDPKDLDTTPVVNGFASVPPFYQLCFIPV
CYP2C9, sequence (P11712 whole entry): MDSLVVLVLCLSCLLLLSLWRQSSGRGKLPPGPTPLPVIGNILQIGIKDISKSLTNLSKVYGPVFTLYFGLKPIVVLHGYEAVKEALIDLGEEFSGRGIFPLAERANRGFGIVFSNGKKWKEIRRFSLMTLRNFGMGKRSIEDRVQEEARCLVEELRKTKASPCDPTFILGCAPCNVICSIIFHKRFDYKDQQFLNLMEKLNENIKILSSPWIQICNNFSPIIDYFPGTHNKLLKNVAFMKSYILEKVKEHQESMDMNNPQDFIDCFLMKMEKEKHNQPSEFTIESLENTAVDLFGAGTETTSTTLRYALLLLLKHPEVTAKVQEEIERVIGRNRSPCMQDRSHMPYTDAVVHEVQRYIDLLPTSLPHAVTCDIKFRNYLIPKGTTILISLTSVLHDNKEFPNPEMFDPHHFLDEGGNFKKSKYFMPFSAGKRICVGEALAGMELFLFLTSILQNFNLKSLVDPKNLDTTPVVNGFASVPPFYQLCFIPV
Phosphatidylinositol 4,5-bisphosphate 3-kinase catalytic subunit gamma isoform, sequence (P48736 whole entry, canonical isoform): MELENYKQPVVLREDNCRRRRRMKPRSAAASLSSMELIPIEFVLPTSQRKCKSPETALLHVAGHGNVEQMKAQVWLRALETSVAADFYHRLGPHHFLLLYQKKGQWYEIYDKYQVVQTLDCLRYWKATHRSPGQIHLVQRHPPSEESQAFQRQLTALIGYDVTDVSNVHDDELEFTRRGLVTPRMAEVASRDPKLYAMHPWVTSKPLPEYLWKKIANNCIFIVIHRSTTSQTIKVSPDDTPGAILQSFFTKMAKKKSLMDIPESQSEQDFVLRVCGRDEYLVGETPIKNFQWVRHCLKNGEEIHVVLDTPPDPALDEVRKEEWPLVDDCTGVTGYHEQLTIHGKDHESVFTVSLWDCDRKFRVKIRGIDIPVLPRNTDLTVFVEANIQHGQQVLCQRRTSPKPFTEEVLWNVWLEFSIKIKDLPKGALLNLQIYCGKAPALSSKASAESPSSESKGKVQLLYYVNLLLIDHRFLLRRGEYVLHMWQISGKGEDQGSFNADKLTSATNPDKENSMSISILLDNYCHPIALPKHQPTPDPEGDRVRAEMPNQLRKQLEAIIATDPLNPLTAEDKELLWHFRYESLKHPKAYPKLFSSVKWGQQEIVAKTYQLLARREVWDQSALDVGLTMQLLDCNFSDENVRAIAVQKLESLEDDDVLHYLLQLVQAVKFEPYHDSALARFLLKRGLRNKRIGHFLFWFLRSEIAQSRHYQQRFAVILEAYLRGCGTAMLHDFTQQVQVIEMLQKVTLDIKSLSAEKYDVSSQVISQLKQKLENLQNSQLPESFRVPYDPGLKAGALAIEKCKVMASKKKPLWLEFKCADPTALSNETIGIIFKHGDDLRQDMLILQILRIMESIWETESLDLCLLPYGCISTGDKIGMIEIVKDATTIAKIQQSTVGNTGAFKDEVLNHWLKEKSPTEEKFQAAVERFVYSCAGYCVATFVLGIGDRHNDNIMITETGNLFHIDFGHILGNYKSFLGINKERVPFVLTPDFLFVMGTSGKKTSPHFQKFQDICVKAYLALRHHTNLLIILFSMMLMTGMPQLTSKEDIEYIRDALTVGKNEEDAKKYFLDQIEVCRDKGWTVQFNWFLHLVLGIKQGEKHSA

IC50 [1]: 480 nM
SMILES: CN(C)CC(=O)N1CCN(Cc2cn3cc(-c4cnc(N)nc4)nc(N4CCOCC4)c3n2)CC1

IC50 [2]: > 10000 nM
SMILES: CS(=O)(=O)N1CCN(Cc2cn3cc(-c4ccc5[nH]ncc5c4)nc(N4CCOCC4)c3n2)CC1

IC50 [2]: 11.4 nM
SMILES: CNc1ncc(-c2nc(N3CCOCC3)c3nc(CN4CCN(S(C)(=O)=O)CC4)cn3c2Cl)cn1

IC50 [2]: 34.6 nM
SMILES: C[C@H](O)C(=O)N1CCN(Cc2cn3cc(-c4cnc(N)nc4)nc(N4CCOCC4)c3n2)CC1

Ki [3]: 124 nM
IC50 [2]: 5.5 nM
Ki [2]: 6.2 nM
IC50 [1]: 120 nM
Ki (PI3K p110 beta/p85 alpha): 319 nM
Ki [4]: 14.7 nM
SMILES: C[C@H]1CN(Cc2cn3cc(-c4cnc(N)nc4)nc(N4CCOCC4)c3n2)CCN1S(C)(=O)=O

IC50 [2]: 2500 nM
SMILES: CS(=O)(=O)N1CCN(Cc2cn3cc(-c4cccc5[nH]ccc45)nc(N4CCOCC4)c3n2)CC1

IC50 [2]: 123 nM
SMILES: CS(=O)(=O)N1CCN(Cc2cn3cc(-c4cncnc4)nc(N4CCOCC4)c3n2)CC1

IC50 [2]: 1010 nM
SMILES: CS(=O)(=O)N1CCN(Cc2cn3cc(-c4cnc(N)c(C#N)c4)nc(N4CCOCC4)c3n2)CC1

IC50 [2]: 16.4 nM
SMILES: CNc1ncc(-c2cn3cc(CN4CCN(S(C)(=O)=O)CC4)nc3c(N3CCOCC3)n2)cn1

remaining at 0.25 h, 1 µM [5]: 96%
Ki [3]: 26.7 nM
inhibition at 10 µM (CYP2C9): < 30%
inhibition at 10 µM (CYP2D6): < 30%
inhibition at 10 µM (CYP3A4): < 30%
IC50 [2]: 6.8 nM
Ki [2]: 7.4 nM
remaining at 0.25 h, 1 µM [6]: 82%
inhibition at 10 µM (CYP2C19): < 30%
IC50 [1]: 10.2 nM
Ki (PI3K p110 beta/p85 alpha): 79.8 nM
inhibition at 10 µM (CYP1A2): < 30%
Ki [4]: 5.06 nM
SMILES: CS(=O)(=O)N1CCN(Cc2cn3cc(-c4cnc(N)nc4C(F)(F)F)nc(N4CCOCC4)c3n2)CC1

IC50 [2]: 28.7 nM
SMILES: CS(=O)(=O)C1CCN(Cc2cn3cc(-c4cnc(N)nc4)nc(N4CCOCC4)c3n2)CC1

IC50 [2]: 2.6 nM
SMILES: C[C@@H]1CN(Cc2cn3cc(-c4cnc(N)nc4)nc(N4CCOCC4)c3n2)CCN1S(C)(=O)=O

remaining at 0.25 h, 1 µM [5]: 64%
inhibition at 10 µM (CYP2C9): < 30%
inhibition at 10 µM (CYP2D6): < 30%
inhibition at 10 µM (CYP3A4): < 30%
IC50 [2]: 13.3 nM
remaining at 0.25 h, 1 µM [6]: 98%
inhibition at 10 µM (CYP2C19): < 30%
IC50 [1]: 98.5 nM
inhibition at 10 µM (CYP1A2): < 30%
SMILES: CCS(=O)(=O)N1CCN(Cc2cn3cc(-c4cnc(N)nc4)nc(N4CCOCC4)c3n2)CC1

IC50 [2]: > 10000 nM
SMILES: CS(=O)(=O)N1CCN(Cc2cn3cc(-c4ccc5[nH]ccc5c4)nc(N4CCOCC4)c3n2)CC1

SMILES: CS(=O)(=O)N1C2CCC1CN(Cc1cn3cc(-c4cnc(N)nc4)nc(N4CCOCC4)c3n1)C2
IC50 [2]: 108 nM

IC50 [2]: 13 nM
SMILES: Cc1nc(N)ncc1-c1nc(N2CCOCC2)c2nc(CN3CCN(S(C)(=O)=O)CC3)cn2c1Cl

IC50 [2]: 160 nM
SMILES: COc1ncc(-c2cn3cc(CN4CCN(S(C)(=O)=O)CC4)nc3c(N3CCOCC3)n2)cn1

IC50 [2]: 21.6 nM
SMILES: Cc1ncc(-c2nc(N3CCOCC3)c3nc(CN4CCN(S(C)(=O)=O)CC4)cn3c2Cl)cn1

IC50 [2]: 6.8 nM
SMILES: CS(=O)(=O)N1CCN(Cc2cn3c(Cl)c(-c4cnc(N)nc4C(F)(F)F)nc(N4CCOCC4)c3n2)CC1

IC50 [2]: 3.2 nM
IC50 [1]: 244 nM
SMILES: C[C@@H]1CN(S(C)(=O)=O)C[C@H](C)N1Cc1cn2cc(-c3cnc(N)nc3)nc(N3CCOCC3)c2n1

IC50 [2]: 117 nM
SMILES: CS(=O)(=O)N1CC2CN(Cc3cn4cc(-c5cnc(N)nc5)nc(N5CCOCC5)c4n3)CC2C1 (centres undefined)

IC50 [2]: 166 nM
SMILES: CS(=O)(=O)N1CCN(Cc2cn3c(Cl)c(-c4cnc5[nH]ccc5c4)nc(N4CCOCC4)c3n2)CC1

IC50 [2]: 1110 nM
SMILES: COc1cncc(-c2cn3cc(CN4CCN(S(C)(=O)=O)CC4)nc3c(N3CCOCC3)n2)c1
